What all share (assay): relative viability (nuclei count vs DMSO), 5 days (fraction); higher = more cells survive
Compound in assay [1]: CS(=O)(=O)c1ccc(-c2cnc(N)c(C(=O)Nc3ccccc3)n2)cc1 [VE-821] + N=C(N)NC(=N)NCCc1ccccc1 [Phenformin] (partner 250 µM)
Summed up: (§1)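 Lung cancer cell lines in 1536-well plates were dosed by pin tool the day after seeding, either with one drug alone or with a fixed anchor-drug dose plus five library-drug doses (not always all listed) in √10 steps. After 5 days, cells were fixed and their nuclei stained in one step (final 0.05% Triton X-100, 1% formaldehyde, 1 ug/ml Hoechst), then counted on 4× images. Relative viability is the nuclei count in treated wells divided by that in vehicle wells. Values are medians of duplicate plates.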

Compound in assay [2]: CS(=O)(=O)c1ccc(-c2cnc(N)c(C(=O)Nc3ccccc3)n2)cc1 [VE-821] + Cc1cc(Nc2cc(N3CCN(C)CC3)nc(Sc3ccc(NC(=O)C4CC4)cc3)n2)n[nH]1 [Tozasertib] (partner 0.1 µM)
The method, boiled down: as §1

Compound in assay [3]: CS(=O)(=O)c1ccc(C(=O)Nc2ccc(Cl)c(-c3ccccn3)c2)c(Cl)c1 [Vismodegib] + CS(=O)(=O)N1CCN(Cc2cc3nc(-c4cccc5[nH]ncc45)nc(N4CCOCC4)c3s2)CC1 [Pictilisib] (partner 1 µM)
The method, boiled down: as §1

Compound in assay [4]: CS(=O)(=O)c1ccc(-c2cnc(N)c(C(=O)Nc3ccccc3)n2)cc1 [VE-821] + CC1(C)CCC(c2ccc(Cl)cc2)=C(CN2CCN(c3ccc(C(=O)NS(=O)(=O)c4ccc(N[C@H](CCN5CCOCC5)CSc5ccccc5)c(S(=O)(=O)C(F)(F)F)c4)cc3)CC2)C1 [Navitoclax] (partner 0.5 µM)
The method, boiled down: as §1

As for UMC-11, the relative viability was found to be 0.335 in assay [1] (first compound 0.08 µM); 0.301 in assay [1] (first compound 0.253 µM); 0.331 in assay [1] (first compound 0.8 µM); 0.341 in assay [1] (first compound 2.53 µM); 0.265 in assay [1] (first compound 8 µM); 0.203 in assay [2] (first compound 0.08 µM). The relative viability in assay [2] (first compound 0.253 µM) is 0.195; in assay [2] (first compound 0.8 µM) it was 0.223; in assay [2] (first compound 2.53 µM), 0.2; in assay [2] (first compound 8 µM) it was 0.203; in assay [3] (first compound 0.08 µM) it was 0.727; in assay [3] (first compound 0.253 µM), 0.703. Besides, the relative viability in assay [3] (first compound 0.8 µM) came to 0.738; in assay [3] (first compound 2.53 µM), 0.75; in assay [3] (first compound 8 µM) it was 0.271; in assay [4] (first compound 0.08 µM), 0.358; in assay [4] (first compound 0.253 µM) it was 0.344; in assay [4] (first compound 0.8 µM), 0.332. In addition, the relative viability in assay [4] (first compound 2.53 µM) is 0.302; in assay [4] (first compound 8 µM), 0.222.

The values above are taken from the supplement of paper PMC10307832.
